Results: the NIST ThermoML archive (doi:10.1016/j.fluid.2012.10.024)

Key:
[1] = mn = molality of the nth substance listed, in mol/kg; conditions: 101 kPa, Liquid, Vibrating tube method
[2] = 101.33 kPa, Liquid, Vibrating tube method

OCC1CCCCN1 (stereo unspecified) [2-(hydroxymethyl)piperidine] + O
mass density [kg/m3], [1]
Conditions	m1 = 0.0476	m1 = 0.0676	m1 = 0.0864	m1 = 0.1214	m1 = 0.1524	m1 = 0.1766	m1 = 0.2009	m1 = 0.2264	m1 = 0.2609
293.15 K	998.6	998.75	998.87	999.15	999.37	999.52	999.71	999.87	1000.11
298.15 K	997.46	997.6	997.72	997.99	998.2	998.34	998.53	998.68	998.91
303.15 K	996.06	996.19	996.31	996.57	996.77	996.91	997.09	997.24	997.46
308.15 K	994.44	994.56	994.68	994.93	995.13	995.26	995.43	995.58	995.79
313.15 K	992.59	992.74	992.85	993.1	993.28	993.41	993.58	993.72	993.92
318.15 K	990.6	990.72	990.83	991.07	991.25	991.37	991.53	991.66	991.86

OCc1ccccn1 [α-picolyl alcohol]
[2]
Conditions	mass density [kg/m3]
291.15 K	1133.6
292.15 K	1133.1
293.15 K	1132.4
295.15 K	1130.7
297.15 K	1129.3
298.15 K	1128.7
299.15 K	1127.7
300.15 K	1127.1
302.15 K	1125.6
303.15 K	1124.8
304.15 K	1124
306.15 K	1122.4
308.15 K	1120.8
310.15 K	1119.4
312.15 K	1118.1
313.15 K	1117.2
315.15 K	1115.6
317.15 K	1114.2
318.15 K	1113.5

OCc1cccnc1 [β-picolyl alcohol]
[2]
Conditions	mass density [kg/m3]
291.15 K	1138.2
292.15 K	1137.5
293.15 K	1136.8
295.15 K	1135.3
297.15 K	1134.1
298.15 K	1133.5
299.15 K	1132.6
300.15 K	1131.8
302.15 K	1130.4
303.15 K	1129.6
304.15 K	1128.9
306.15 K	1127.5
308.15 K	1125.9
310.15 K	1124.7
312.15 K	1123.5
313.15 K	1122.6
315.15 K	1121.2
317.15 K	1120
318.15 K	1119.3

OCC1CCCNC1 (stereo unspecified) [3-(hydroxymethyl)piperidine] + O
mass density [kg/m3], [1]
Conditions	m1 = 0.0562	m1 = 0.0841	m1 = 0.1205	m1 = 0.1576	m1 = 0.188	m1 = 0.2257	m1 = 0.2728	m1 = 0.3059	m1 = 0.3481
293.15 K	999.04	999.09	999.36	999.67	999.94	1000.2	1000.48	1000.72	1000.95
298.15 K	997.9	997.94	998.2	998.52	998.77	999.02	999.285	999.52	999.74
303.15 K	996.5	996.53	996.79	997.1	997.34	997.58	997.835	998.06	998.27
308.15 K	994.87	994.9	995.16	995.46	995.7	995.93	996.165	996.39	996.59
313.15 K	993.05	993.07	993.32	993.61	993.85	994.07	994.3	994.52	994.71
318.15 K	991.04	991.06	991.3	991.58	991.82	992.02	992.25	992.46	992.64
